Source: US20260226493A1, “HERBICIDE RESISTANT PLANTS” (SYNGENTA CROP PROTECTION AG, priority 2023, published 2026)

What was measured:
Assay in all cases: BIO3-BIO1 mutant enzyme activity in the presence of herbicide, percentage inhibition (fluorometric DAPA assay)
Format in all cases: biochemical
Conditions in all cases: read-out: percentage inhibition
[1] = target: T1, Arabidopsis thaliana BIO3-BIO1 (BioDA) mutants (Arabidopsis thaliana, UniProt B0F481, A609F)
T1 construct: with the predicted N-terminal mitochondrial transit peptide removed; 6xHis-tag (N); thrombin cleavage site (N); made in house; host or cells: E. coli BL21 (DE3) bioA
T1 sequence (B0F481 23-833 A609F): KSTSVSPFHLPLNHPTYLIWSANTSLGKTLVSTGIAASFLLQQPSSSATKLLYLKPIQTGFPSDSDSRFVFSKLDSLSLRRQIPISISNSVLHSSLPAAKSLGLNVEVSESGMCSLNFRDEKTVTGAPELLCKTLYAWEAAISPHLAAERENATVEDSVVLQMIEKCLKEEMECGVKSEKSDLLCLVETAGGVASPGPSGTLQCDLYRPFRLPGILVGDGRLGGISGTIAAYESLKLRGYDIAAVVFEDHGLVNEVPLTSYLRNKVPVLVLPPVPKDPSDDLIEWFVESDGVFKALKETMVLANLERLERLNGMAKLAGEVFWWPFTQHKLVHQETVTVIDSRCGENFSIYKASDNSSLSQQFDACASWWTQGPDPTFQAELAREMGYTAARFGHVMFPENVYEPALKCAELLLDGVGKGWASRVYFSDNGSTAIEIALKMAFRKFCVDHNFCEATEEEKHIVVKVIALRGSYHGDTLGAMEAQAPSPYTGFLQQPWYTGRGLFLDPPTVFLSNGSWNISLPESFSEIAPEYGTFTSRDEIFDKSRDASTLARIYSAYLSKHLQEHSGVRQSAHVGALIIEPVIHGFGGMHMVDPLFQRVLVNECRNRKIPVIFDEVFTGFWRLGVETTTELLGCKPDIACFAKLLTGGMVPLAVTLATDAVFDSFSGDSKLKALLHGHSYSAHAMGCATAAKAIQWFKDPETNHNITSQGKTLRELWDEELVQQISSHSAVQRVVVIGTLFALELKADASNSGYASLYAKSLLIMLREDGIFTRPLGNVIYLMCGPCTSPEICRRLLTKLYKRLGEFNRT
In short: (§1)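 Percentage inhibition compares activity at one of three herbicide concentrations against DMSO, from o-phthalaldehyde-derivatised DAPA fluorescence (ex 410, em 470 nm). Purified N-His BIO3-BIO1 variants (50 nM, E. coli-expressed) saw herbicide 10 min at 20 °C in pH 8.6 EPPS buffer, then 20 μM KAPA plus 100 μM spermidine for 75 min at 20 °C.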

[2] = target: T2, Arabidopsis thaliana BIO3-BIO1 (BioDA) mutants (Arabidopsis thaliana, UniProt B0F481, A609Y)
T2 construct: with the predicted N-terminal mitochondrial transit peptide removed; 6xHis-tag (N); thrombin cleavage site (N); made in house; host or cells: E. coli BL21 (DE3) bioA
T2 sequence (B0F481 23-833 A609Y): as the sequence (B0F481 23-833 A609F) above, with F587Y counted along it
In short: as §1

[3] = target: T3, Arabidopsis thaliana BIO3-BIO1 (BioDA) mutants (Arabidopsis thaliana, UniProt B0F481, F348I)
T3 construct: with the predicted N-terminal mitochondrial transit peptide removed; 6xHis-tag (N); thrombin cleavage site (N); made in house; host or cells: E. coli BL21 (DE3) bioA
T3 sequence (B0F481 23-833 F348I): as the sequence (B0F481 23-833 A609F) above, with F326I, F587A counted along it
In short: as §1

[4] = target: T4, Arabidopsis thaliana BIO3-BIO1 (BioDA) mutants (Arabidopsis thaliana, UniProt B0F481, F348K)
T4 construct: with the predicted N-terminal mitochondrial transit peptide removed; 6xHis-tag (N); thrombin cleavage site (N); made in house; host or cells: E. coli BL21 (DE3) bioA
T4 sequence (B0F481 23-833 F348K): as the sequence (B0F481 23-833 A609F) above, with F326K, F587A counted along it
In short: as §1

[5] = target: T5, Arabidopsis thaliana BIO3-BIO1 (BioDA) mutants (Arabidopsis thaliana, UniProt B0F481, G513L)
T5 construct: with the predicted N-terminal mitochondrial transit peptide removed; 6xHis-tag (N); thrombin cleavage site (N); made in house; host or cells: E. coli BL21 (DE3) bioA
T5 sequence (B0F481 23-833 G513L): as the sequence (B0F481 23-833 A609F) above, with G491L, F587A counted along it
In short: as §1

[6] = target: T6, Arabidopsis thaliana BIO3-BIO1 (BioDA) mutants (Arabidopsis thaliana, UniProt B0F481, G700S)
T6 construct: with the predicted N-terminal mitochondrial transit peptide removed; 6xHis-tag (N); thrombin cleavage site (N); made in house; host or cells: E. coli BL21 (DE3) bioA
T6 sequence (B0F481 23-833 G700S): as the sequence (B0F481 23-833 A609F) above, with F587A, G678S counted along it
In short: as §1

[7] = target: T7, Arabidopsis thaliana BIO3-BIO1 (BioDA) mutants (Arabidopsis thaliana, UniProt B0F481, P421G)
T7 construct: with the predicted N-terminal mitochondrial transit peptide removed; 6xHis-tag (N); thrombin cleavage site (N); made in house; host or cells: E. coli BL21 (DE3) bioA
T7 sequence (B0F481 23-833 P421G): as the sequence (B0F481 23-833 A609F) above, with P399G, F587A counted along it
In short: as §1

[8] = target: T8, Arabidopsis thaliana BIO3-BIO1 (BioDA) mutants (Arabidopsis thaliana, UniProt B0F481, S509A)
T8 construct: with the predicted N-terminal mitochondrial transit peptide removed; 6xHis-tag (N); thrombin cleavage site (N); made in house; host or cells: E. coli BL21 (DE3) bioA
T8 sequence (B0F481 23-833 S509A): as the sequence (B0F481 23-833 A609F) above, with S487A, F587A counted along it
In short: as §1

[9] = target: T9, Arabidopsis thaliana BIO3-BIO1 (BioDA) mutants (Arabidopsis thaliana, UniProt B0F481, S509Q)
T9 construct: with the predicted N-terminal mitochondrial transit peptide removed; 6xHis-tag (N); thrombin cleavage site (N); made in house; host or cells: E. coli BL21 (DE3) bioA
T9 sequence (B0F481 23-833 S509Q): as the sequence (B0F481 23-833 A609F) above, with S487Q, F587A counted along it
In short: as §1

[10] = target: T10, Arabidopsis thaliana BIO3-BIO1 (BioDA) mutants (Arabidopsis thaliana, UniProt B0F481, S509T)
T10 construct: with the predicted N-terminal mitochondrial transit peptide removed; 6xHis-tag (N); thrombin cleavage site (N); made in house; host or cells: E. coli BL21 (DE3) bioA
T10 sequence (B0F481 23-833 S509T): as the sequence (B0F481 23-833 A609F) above, with S487T, F587A counted along it
In short: as §1

[11] = target: T11, Arabidopsis thaliana BIO3-BIO1 (BioDA) mutants (Arabidopsis thaliana, UniProt B0F481, Y511E)
T11 construct: with the predicted N-terminal mitochondrial transit peptide removed; 6xHis-tag (N); thrombin cleavage site (N); made in house; host or cells: E. coli BL21 (DE3) bioA
T11 sequence (B0F481 23-833 Y511E): as the sequence (B0F481 23-833 A609F) above, with Y489E, F587A counted along it
In short: as §1

[12] = target: T12, Arabidopsis thaliana BIO3-BIO1 (BioDA) mutants (Arabidopsis thaliana, UniProt B0F481, Y511F)
T12 construct: with the predicted N-terminal mitochondrial transit peptide removed; 6xHis-tag (N); thrombin cleavage site (N); made in house; host or cells: E. coli BL21 (DE3) bioA
T12 sequence (B0F481 23-833 Y511F): as the sequence (B0F481 23-833 A609F) above, with Y489F, F587A counted along it
In short: as §1

SMILES: CCn1c(C)c(-c2ccc(F)cc2F)c(=O)c(C(=O)O)c1-c1ccc(Cl)c(Cl)c1 [Compound C, 2-(3,4-dichlorophenyl)-5-(2,4-difluorophenyl)-1-ethyl-6-methyl-4-oxo-pyridine-3-carboxylic acid]
- inhibition at 0.2 µM [1]: 5%
- inhibition at 1 µM [1]: 5%
- inhibition at 5 µM [1]: 20%
- inhibition at 0.2 µM [2]: 0%
- inhibition at 1 µM [2]: 0%
- inhibition at 5 µM [2]: 43%
- inhibition at 0.2 µM [3]: 6%
- inhibition at 1 µM [3]: 11%
- inhibition at 5 µM [3]: 49%
- inhibition at 0.2 µM [4]: 0%
- inhibition at 1 µM [4]: 11%
- inhibition at 5 µM [4]: 15%
- inhibition at 0.2 µM [5]: 69%
- inhibition at 1 µM [5]: 92%
- inhibition at 5 µM [5]: 98%
- inhibition at 0.2 µM [6]: 9%
- inhibition at 1 µM [6]: 0%
- inhibition at 5 µM [6]: 9%
- inhibition at 0.2 µM [7]: 11%
- inhibition at 1 µM [7]: 35%
- inhibition at 5 µM [7]: 80%
- inhibition at 0.2 µM [8]: 0%
- inhibition at 1 µM [8]: 63%
- inhibition at 5 µM [8]: 95%
- inhibition at 0.2 µM [9]: 23%
- inhibition at 1 µM [9]: 82%
- inhibition at 5 µM [9]: 99%
- inhibition at 0.2 µM [10]: 5%
- inhibition at 1 µM [10]: 50%
- inhibition at 5 µM [10]: 89%
- inhibition at 0.2 µM [11]: 27%
- inhibition at 1 µM [11]: 74%
- inhibition at 5 µM [11]: 96%
- inhibition at 0.2 µM [12]: 44%
- inhibition at 1 µM [12]: 67%
- inhibition at 5 µM [12]: 90%

SMILES: CCn1c(Cn2ccc(C(F)(F)F)n2)cc(=O)c(C(=O)O)c1-c1ccc(Cl)c(Cl)c1 [Compound L, 2-(3,4-dichlorophenyl)-1-ethyl-4-oxo-6-[[3-(trifluoromethyl)pyrazol-1-yl]methyl]pyridine-3-carboxylic acid]
- inhibition at 0.01 µM [1]: 10%
- inhibition at 0.075 µM [1]: 0%
- inhibition at 0.5 µM [1]: 16%
- inhibition at 0.01 µM [2]: 0%
- inhibition at 0.075 µM [2]: 0%
- inhibition at 0.5 µM [2]: 0%
- inhibition at 0.01 µM [3]: 1%
- inhibition at 0.075 µM [3]: 3%
- inhibition at 0.5 µM [3]: 14%
- inhibition at 0.01 µM [4]: 0%
- inhibition at 0.075 µM [4]: 2%
- inhibition at 0.5 µM [4]: 22%
- inhibition at 0.01 µM [5]: 58%
- inhibition at 0.075 µM [5]: 88%
- inhibition at 0.5 µM [5]: 97%
- inhibition at 0.01 µM [6]: 9%
- inhibition at 0.075 µM [6]: 3%
- inhibition at 0.5 µM [6]: 3%
- inhibition at 0.01 µM [7]: 9%
- inhibition at 0.075 µM [7]: 11%
- inhibition at 0.5 µM [7]: 85%

SMILES: CCOC(=O)c1nn(-c2ccc3c(c2)OC(F)(F)C(F)(F)O3)c2cccc(C(C)=O)c2c1=O [Compound A, ethyl 5-acetyl-4-oxo-1-(2,2,3,3-tetrafluoro-1,4-benzodioxin-6-yl)cinnoline-3-carboxylate]
- inhibition at 1 µM [1]: 6%
- inhibition at 1 µM [2]: 0%
- inhibition at 1 µM [3]: 7%
- inhibition at 1 µM [4]: 11%
- inhibition at 1 µM [5]: 89%
- inhibition at 1 µM [6]: 0%
- inhibition at 1 µM [7]: 30%
- inhibition at 1 µM [8]: 0%
- inhibition at 1 µM [9]: 8%
- inhibition at 1 µM [10]: 77%
- inhibition at 1 µM [11]: 0%
- inhibition at 1 µM [12]: 79%

SMILES: CCn1c(-c2ccc(Cl)c(Cl)c2)c(C(=O)O)c(=O)c2cc(F)ccc21 [Compound M, 2-(3,4-dichlorophenyl)-1-ethyl-6-fluoro-4-oxo-quinoline-3-carboxylic acid]
- inhibition at 0.2 µM [1]: 19%
- inhibition at 1 µM [1]: 26%
- inhibition at 5 µM [1]: 66%
- inhibition at 0.2 µM [2]: 0%
- inhibition at 1 µM [2]: 4%
- inhibition at 5 µM [2]: 45%
- inhibition at 0.2 µM [3]: 0%
- inhibition at 1 µM [3]: 6%
- inhibition at 5 µM [3]: 25%
- inhibition at 0.2 µM [4]: 0%
- inhibition at 1 µM [4]: 1%
- inhibition at 5 µM [4]: 24%
- inhibition at 0.2 µM [5]: 54%
- inhibition at 1 µM [5]: 85%
- inhibition at 5 µM [5]: 97%
- inhibition at 0.2 µM [6]: 8%
- inhibition at 1 µM [6]: 0%
- inhibition at 5 µM [6]: 9%
- inhibition at 0.2 µM [7]: 19%
- inhibition at 1 µM [7]: 39%
- inhibition at 5 µM [7]: 75%
- inhibition at 0.2 µM [8]: 0%
- inhibition at 1 µM [8]: 33%
- inhibition at 5 µM [8]: 81%
- inhibition at 0.2 µM [9]: 23%
- inhibition at 1 µM [9]: 76%
- inhibition at 5 µM [9]: 96%
- inhibition at 0.2 µM [10]: 9%
- inhibition at 1 µM [10]: 69%
- inhibition at 5 µM [10]: 95%
- inhibition at 0.2 µM [11]: 29%
- inhibition at 1 µM [11]: 74%
- inhibition at 5 µM [11]: 95%
- inhibition at 0.2 µM [12]: 24%
- inhibition at 1 µM [12]: 57%
- inhibition at 5 µM [12]: 82%
